# Experimental data from ChEMBL document CHEMBL1201862, “PubChem BioAssay data set” (2004).
# Active and inactive are the calls of the source.
# Tests used:
# [1] = target: T1, Mitochondrial peptide methionine sulfoxide reductase (Bos taurus, UniProt P54149); format: functional;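 note: absorbance read-out, biochemical high-throughput dose-response screen for MsrA inhibitors, confirmatory; recombinant bovine MsrA coupled to E. coli TrxB with NADPH and selenocystamine; potency is for inhibitors of MsrA activity on DMSO substrate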
# T1 sequence (P54149 whole entry): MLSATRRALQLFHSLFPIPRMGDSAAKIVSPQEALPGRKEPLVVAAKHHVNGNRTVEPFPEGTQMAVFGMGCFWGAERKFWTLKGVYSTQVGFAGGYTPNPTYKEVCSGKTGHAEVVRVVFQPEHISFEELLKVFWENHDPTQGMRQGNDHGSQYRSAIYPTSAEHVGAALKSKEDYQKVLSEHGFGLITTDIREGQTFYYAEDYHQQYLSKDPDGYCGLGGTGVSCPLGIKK
# [2] = inhibitors of firefly luciferase expression or activity, dose response, H4 neuroglioma cells, luminescence (AID 1990); format: functional, cell-based
# [3] = Luminescence Cell-Based Dose Response HTS to Identify Inhibitors of 5'UTR Stem-Loop Driven Prion Protein mRNA Translation in H4 Neuroglioblastoma Cells. [Related pubchem assays: 1827 (Project Summary), 1813 (Primary HTS)]; format: functional
# [4] = inhibitors of SNCA 5'UTR-driven reporter translation, confirmation, H4 neuroglioma cells, luminescence (AID 1988); format: functional, cell-based
# HEK293 = assay: inhibitors of LMP1-driven NF-kB reporter, dose response, cell-based, HEK293, luciferase, cherry-pick (AID 588343); format: functional; details: Homo sapiens
# Orexin receptor type 2 [5] = target: T2, Orexin receptor type 2 (Homo sapiens, UniProt O43614); assay: Counterscreen assay for antagonists of the orexin 1 receptor (OX1R; HCRTR1): Homogeneous Time Resolved Fluorescence (HTRF)-based cell-based dose response assay for antagonists of the orexin 2 receptor (OX2R; HCRTR2), run by assay provider.; format: functional
# T2 sequence (O43614 whole entry): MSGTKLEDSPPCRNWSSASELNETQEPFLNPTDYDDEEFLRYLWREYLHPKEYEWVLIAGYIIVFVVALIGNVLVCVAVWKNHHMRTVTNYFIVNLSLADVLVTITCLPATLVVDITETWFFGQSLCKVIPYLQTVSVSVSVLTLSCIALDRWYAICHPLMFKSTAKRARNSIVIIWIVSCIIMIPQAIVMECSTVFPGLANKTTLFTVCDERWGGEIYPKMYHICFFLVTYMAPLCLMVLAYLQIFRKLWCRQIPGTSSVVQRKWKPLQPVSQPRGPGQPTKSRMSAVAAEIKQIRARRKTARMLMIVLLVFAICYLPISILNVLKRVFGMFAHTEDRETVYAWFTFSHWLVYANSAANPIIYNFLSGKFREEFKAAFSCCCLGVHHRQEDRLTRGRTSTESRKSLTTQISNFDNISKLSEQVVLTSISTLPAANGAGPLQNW
# [6] = (§1) Counterscreen for antagonists of the orexin 1 receptor (OX1R; HCRTR1): Fluorescence-based cell-based high throughput dose response assay to identify antagonists of the parental CHO cell line. [Related pubchem assays (depositor defined):AID434989, AID435008, AID463079, AID485270, AID492963, AID492964, AID492965, AID493232, AID504699, AID504701]; format: functional
# Orexin receptor type 2 [7] = target: T2, Orexin receptor type 2; assay: Counterscreen assay for antagonists of the orexin 1 receptor (OX1R; HCRTR1): Fluorescence-based cell-based dose response assay for antagonists of the orexin 2 receptor (OX2R; HCRTR2), run by assay provider.; format: functional
# CHO-K1 = assay: as §1, with “Homogeneous time resolved fluorescence (HTRF)-based” for “Fluorescence-based”, “cell-based” for “cell-based high throughput”, “CHO-K1” for “CHO”; format: functional; details: Cricetulus griseus;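 note: potency for inhibition of ATP-stimulated IP1 production as antagonists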
# [8] = HEp-2 cell cytotoxicity, dose response, cytotoxicity control for RSV inhibitor project, HTS (AID 2410); format: functional; details: human respiratory syncytial virus
# [9] = target: T3, Orexin/Hypocretin receptor type 1 (Homo sapiens, UniProt O43613); assay: Homogeneous Time Resolved Fluorescence (HTRF)-based cell-based high throughput dose response assay for antagonists of the orexin 1 receptor (OX1R; HCRTR1). [Related pubchem assays (depositor defined):AID434989, AID435008, AID463079, AID485270, AID492963, AID492964, AID492965, AID493232, AID504717, AID504718]; format: functional
# T3 sequence (O43613 whole entry): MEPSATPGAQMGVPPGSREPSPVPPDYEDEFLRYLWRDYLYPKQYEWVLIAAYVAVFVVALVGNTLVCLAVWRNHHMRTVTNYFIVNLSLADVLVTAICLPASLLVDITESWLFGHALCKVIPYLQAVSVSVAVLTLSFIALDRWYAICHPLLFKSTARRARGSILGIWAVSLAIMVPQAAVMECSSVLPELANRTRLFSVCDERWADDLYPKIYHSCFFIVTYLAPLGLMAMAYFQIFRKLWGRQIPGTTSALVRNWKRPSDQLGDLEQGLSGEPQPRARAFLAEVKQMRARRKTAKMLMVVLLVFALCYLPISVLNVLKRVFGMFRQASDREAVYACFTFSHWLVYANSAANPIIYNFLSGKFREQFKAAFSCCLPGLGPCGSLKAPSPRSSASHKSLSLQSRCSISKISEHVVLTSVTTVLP
# [10] = target: T3, Orexin/Hypocretin receptor type 1; assay: Fluorescence-based cell-based high throughput dose response assay for antagonists of the orexin 1 receptor (OX1R; HCRTR1). [Related pubchem assays (depositor defined):AID434989, AID435008, AID463079, AID485270, AID492963, AID492964, AID492965, AID493232, AID504717, AID504718]; format: functional
# [11] = target: T4, Endoribonuclease toxin MazF (Escherichia coli K-12, UniProt P0AE70); assay: MazF toxin RNase activators, dose response, biochemical, fluorescence, single-stranded RNA substrate, uHTS hits (AID 588481); format: functional
# T4 sequence (P0AE70 whole entry): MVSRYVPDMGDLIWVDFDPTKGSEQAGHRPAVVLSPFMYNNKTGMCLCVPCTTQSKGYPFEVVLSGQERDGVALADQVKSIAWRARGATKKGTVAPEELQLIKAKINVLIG
# [12] = target: T4, Endoribonuclease toxin MazF; assay: fluorescent RNA oligo signal without MazF, dose response, counter-screen for MazEF activator project, biochemical, fluorescence, single-stranded RNase substrate (AID 588502); format: functional
# [13] = target: ATP-dependent molecular chaperone HSP82 (Candida albicans (strain WO-1) (Yeast), UniProt C4YTQ8); assay: loss of DOC-induced GRE-beta-galactosidase reporter signal, dose response, Hsp90 inhibitor project, S. cerevisiae, luminescence (AID 2400); format: functional, cell-based;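 note: beta-galactosidase luminescence from glucocorticoid response element reporter as proxy for Hsp90 function; inhibitor potency where signal loss means Hsp90 inhibition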
# ATP-dependent molecular chaperone HSP82, sequence (C4YTQ8 whole entry): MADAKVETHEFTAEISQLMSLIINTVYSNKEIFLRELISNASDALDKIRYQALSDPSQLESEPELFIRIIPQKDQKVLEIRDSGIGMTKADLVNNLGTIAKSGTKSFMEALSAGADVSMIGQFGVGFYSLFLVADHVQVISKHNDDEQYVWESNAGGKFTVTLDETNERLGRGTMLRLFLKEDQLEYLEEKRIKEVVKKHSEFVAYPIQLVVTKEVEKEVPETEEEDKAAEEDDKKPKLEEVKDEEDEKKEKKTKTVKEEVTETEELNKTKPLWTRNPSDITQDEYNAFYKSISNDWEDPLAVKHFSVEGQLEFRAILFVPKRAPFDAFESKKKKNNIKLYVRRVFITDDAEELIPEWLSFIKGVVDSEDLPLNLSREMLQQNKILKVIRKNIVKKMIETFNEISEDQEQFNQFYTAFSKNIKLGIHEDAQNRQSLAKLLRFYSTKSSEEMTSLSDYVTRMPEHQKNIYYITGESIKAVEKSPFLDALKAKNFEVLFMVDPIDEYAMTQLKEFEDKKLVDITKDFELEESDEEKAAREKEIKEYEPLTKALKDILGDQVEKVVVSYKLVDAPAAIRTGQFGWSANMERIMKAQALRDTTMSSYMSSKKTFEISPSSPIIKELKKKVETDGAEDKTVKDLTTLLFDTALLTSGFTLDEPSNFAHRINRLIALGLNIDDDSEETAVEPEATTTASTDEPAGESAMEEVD
# [14] = NIH-3T3 fibroblast cytotoxicity, dose response, cytotoxicity control, cell-based, fluorescence, Alamar Blue, secondary assay (AID 2327); format: functional;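 note: NIH-3T3 mouse fibroblasts cultured with fluconazole at 8 µg/mL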
# [15] = target: T5, Serine/threonine-protein phosphatase (Candida dubliniensis (strain CD36 / CBS 7987 / NCPF 3949 / NRRLY-17841) (Yeast), UniProt B9W6M3); assay: calcineurin pathway inhibitors in yeast reporter, dose response, S. cerevisiae, CDRE-lacZ, luminescence, secondary (AID 2388); format: functional, cell-based;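 note: yeast reporter cells carrying a calcineurin-responsive lacZ construct stimulated with calcium chloride; luminescent beta-galactosidase reporter signal in whole cells rather than isolated phosphatase activity; potency for inhibition where a drop in reporter signal means calcineurin blockade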
# T5 sequence (B9W6M3 whole entry): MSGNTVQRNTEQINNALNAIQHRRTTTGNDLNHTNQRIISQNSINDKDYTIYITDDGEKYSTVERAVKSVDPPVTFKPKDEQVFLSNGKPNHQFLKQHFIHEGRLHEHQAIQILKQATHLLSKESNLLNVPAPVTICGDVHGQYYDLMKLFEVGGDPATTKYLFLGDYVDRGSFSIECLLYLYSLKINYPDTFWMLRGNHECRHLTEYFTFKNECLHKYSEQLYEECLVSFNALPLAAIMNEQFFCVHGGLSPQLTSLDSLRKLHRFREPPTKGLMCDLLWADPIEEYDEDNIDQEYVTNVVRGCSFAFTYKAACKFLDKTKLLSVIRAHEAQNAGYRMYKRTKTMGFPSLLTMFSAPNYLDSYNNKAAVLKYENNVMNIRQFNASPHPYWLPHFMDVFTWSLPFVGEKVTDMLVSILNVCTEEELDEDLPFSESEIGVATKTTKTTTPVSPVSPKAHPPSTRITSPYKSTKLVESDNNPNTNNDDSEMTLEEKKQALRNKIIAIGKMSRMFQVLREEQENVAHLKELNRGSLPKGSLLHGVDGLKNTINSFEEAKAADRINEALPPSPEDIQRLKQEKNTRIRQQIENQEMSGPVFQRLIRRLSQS
# [16] = C. albicans growth with fluconazole, confirmation, fluorescence, retest (AID 2467); format: functional, cell-based
# [17] = target: T6, Calpain-2 catalytic subunit (Sus scrofa, UniProt P43367); assay: pig calpain II inhibitor potency, dose response, biochemical, fluorogenic peptide substrate (AID 1420); format: functional
# T6 sequence (P43367 whole entry): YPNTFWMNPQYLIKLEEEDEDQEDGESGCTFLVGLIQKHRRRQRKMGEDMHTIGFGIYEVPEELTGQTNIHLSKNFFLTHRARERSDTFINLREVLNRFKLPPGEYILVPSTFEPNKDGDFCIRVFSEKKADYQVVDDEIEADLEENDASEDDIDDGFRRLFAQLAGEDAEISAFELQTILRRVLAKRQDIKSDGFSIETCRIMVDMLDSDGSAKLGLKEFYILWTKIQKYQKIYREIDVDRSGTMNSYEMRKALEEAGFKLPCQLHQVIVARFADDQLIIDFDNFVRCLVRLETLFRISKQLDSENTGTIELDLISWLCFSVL
# [18] = target: T7, DNA repair and recombination protein RAD54-like (Homo sapiens, UniProt Q92698); assay: inhibitors of human RAD54 branch migration, confirmation, biochemical, fluorescence, cherry-picked samples, dose series (AID 651657); format: functional
# T7 sequence (Q92698 whole entry): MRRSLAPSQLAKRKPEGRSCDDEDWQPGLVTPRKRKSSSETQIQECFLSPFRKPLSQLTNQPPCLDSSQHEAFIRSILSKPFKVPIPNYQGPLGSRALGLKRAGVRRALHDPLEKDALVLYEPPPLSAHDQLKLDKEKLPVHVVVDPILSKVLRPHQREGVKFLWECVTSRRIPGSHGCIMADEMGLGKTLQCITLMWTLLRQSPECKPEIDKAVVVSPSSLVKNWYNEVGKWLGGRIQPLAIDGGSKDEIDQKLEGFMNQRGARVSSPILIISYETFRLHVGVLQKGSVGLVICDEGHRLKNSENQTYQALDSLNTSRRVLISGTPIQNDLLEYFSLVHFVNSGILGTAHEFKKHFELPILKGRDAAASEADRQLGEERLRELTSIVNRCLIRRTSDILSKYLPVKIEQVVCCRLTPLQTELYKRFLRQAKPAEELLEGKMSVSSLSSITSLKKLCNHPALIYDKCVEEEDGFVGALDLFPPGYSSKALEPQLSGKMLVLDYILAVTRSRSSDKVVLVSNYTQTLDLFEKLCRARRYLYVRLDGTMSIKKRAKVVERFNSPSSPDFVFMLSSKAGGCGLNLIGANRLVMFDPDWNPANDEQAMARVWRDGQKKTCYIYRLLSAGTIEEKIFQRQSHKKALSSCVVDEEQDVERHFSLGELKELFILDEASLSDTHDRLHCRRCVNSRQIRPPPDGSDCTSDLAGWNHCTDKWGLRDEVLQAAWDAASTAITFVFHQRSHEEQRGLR
# [19] = inhibitors of intracellular T. cruzi replication, confirmation, NIH3T3 host cells, beta-gal luminescence (AID 2044); format: functional, cell-based;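 note: intracellular parasites grown in NIH/3T3 mouse fibroblasts as host cells; luminescent beta-galactosidase reporter signal from transgenic T. cruzi replicating inside host cells; inhibitors lower the luminescence signal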
# [20] = cytotoxicity toward NIH3T3 fibroblasts, dose response, counter-screen, cell-based, ATP luminescence, mouse fibroblasts (AID 2010); format: functional;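 note: cells exposed to compound for about 90 hours before reading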
# [21] = target: Ras and Rab interactor 1/Tyrosine-protein kinase ABL1 (Homo sapiens, UniProt P00519+Q13671); format: functional;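 note: biochemical TR-FRET dose-response test measuring inhibition of binding between Rin1 and Abl proteins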
# Ras and Rab interactor 1/Tyrosine-protein kinase ABL1, sequence (P00519 whole entry): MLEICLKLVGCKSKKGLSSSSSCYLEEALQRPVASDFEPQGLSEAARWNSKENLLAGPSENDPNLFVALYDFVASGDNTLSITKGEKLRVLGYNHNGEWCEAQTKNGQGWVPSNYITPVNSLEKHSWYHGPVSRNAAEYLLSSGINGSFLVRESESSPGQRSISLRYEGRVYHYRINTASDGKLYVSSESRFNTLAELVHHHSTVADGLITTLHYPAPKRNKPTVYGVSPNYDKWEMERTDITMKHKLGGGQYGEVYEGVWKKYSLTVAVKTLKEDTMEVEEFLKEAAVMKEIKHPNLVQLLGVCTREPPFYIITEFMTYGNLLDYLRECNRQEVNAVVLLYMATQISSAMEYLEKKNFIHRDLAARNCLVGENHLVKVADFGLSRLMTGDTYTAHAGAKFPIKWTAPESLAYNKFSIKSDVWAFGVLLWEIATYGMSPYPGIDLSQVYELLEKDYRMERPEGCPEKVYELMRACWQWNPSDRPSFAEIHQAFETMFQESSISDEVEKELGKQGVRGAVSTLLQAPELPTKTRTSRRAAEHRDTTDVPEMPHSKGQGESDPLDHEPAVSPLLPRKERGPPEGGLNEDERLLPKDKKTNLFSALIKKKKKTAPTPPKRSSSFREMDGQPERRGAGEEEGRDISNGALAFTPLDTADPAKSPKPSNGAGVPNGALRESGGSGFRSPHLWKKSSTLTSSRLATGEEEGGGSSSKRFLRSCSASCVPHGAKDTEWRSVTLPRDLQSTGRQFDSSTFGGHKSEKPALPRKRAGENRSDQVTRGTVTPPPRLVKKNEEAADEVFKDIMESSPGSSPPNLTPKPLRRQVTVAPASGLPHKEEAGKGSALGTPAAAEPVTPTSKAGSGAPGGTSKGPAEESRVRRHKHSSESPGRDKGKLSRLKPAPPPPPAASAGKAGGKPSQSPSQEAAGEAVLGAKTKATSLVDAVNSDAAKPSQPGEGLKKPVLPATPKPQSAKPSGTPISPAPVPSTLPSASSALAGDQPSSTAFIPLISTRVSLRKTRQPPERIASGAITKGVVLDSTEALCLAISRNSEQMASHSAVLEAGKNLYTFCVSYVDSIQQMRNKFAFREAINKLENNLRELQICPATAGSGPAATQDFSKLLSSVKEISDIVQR
# Ras and Rab interactor 1/Tyrosine-protein kinase ABL1, sequence (Q13671 whole entry): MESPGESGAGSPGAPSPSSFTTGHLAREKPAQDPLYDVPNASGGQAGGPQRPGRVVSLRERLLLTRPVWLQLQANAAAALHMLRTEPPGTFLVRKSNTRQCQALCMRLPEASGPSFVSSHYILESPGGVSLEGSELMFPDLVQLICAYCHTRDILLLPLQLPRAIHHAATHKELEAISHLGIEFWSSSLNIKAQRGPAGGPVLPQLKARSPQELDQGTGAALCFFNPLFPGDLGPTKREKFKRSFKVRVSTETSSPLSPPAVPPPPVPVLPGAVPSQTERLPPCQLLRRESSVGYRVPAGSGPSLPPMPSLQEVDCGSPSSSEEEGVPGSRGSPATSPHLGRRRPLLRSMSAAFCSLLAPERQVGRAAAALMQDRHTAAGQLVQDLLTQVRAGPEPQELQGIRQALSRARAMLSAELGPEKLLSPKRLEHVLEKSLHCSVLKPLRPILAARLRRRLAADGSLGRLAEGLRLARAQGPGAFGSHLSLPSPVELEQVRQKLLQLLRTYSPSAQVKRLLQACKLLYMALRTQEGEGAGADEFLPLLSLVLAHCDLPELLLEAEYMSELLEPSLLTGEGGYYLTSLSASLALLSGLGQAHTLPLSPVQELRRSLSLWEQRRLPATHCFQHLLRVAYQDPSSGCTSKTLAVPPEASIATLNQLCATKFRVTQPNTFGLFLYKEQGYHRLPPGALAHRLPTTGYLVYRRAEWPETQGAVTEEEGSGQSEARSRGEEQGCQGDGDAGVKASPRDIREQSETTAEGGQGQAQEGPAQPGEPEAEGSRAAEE
# [22] = HepG2 cell cytotoxicity, dose response, cytotoxicity control for Shn3 inhibitor project, CellTiter-Glo, cherry-picked (AID 624134); format: functional, cell-based
# [23] = Shn3 3'UTR reporter inhibitors, dose response, cell-based, Clone20 osteoblasts, firefly luciferase, cherry-picked (AID 624132); format: functional;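 note: firefly luciferase luminescence from reporter carrying the Shn3 3'UTR in osteoblasts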
# [24] = control 3'UTR Renilla luciferase suppression, dose response, counter-screen for Shn3 inhibitor project, cell-based, Clone20-Shn3RL, cherry-picked (AID 624133); format: functional
compound,measurement,setting,value
O=C(NN=Cc1sc(=O)[n-]c1-[n+]1ccc(-c2ccncc2)cc1)c1ccccc1,IC50,[1],155 µM (inactive)
Oc1c2c(nc3c(-c4cccc(Br)c4)cnn13)CCCC2,EC50,[2],11.2 µM (active)
same,EC50,[3],8.39 µM (active)
same,EC50,[4],9.2 µM (active)
same,AC50,HEK293,4.49 µM (active)
Cc1cccc2c3nc4ccccc4nc3n(C)c12,IC50,Orexin receptor type 2 [5],5.76 µM (active)
same,IC50,[6],> 49.7 µM (inactive)
same,IC50,Orexin receptor type 2 [7],11 µM (inactive)
same,IC50,CHO-K1,> 66.2 µM (inactive)
same,CC50,[8],> 50 µM (active)
same,IC50,[9],1.33 µM (active)
same,IC50,[10],8.12 µM (active)
same,EC50,[11],> 99 µM (inactive)
same,EC50,[12],51.9 µM (inactive)
COCCCNC(=O)CCC(=O)NNc1nc2ccccc2c2nc(-c3ccccc3)nn12,IC50,Orexin receptor type 2 [5],> 50 µM (inactive)
same,IC50,[6],> 49.7 µM (inactive)
same,IC50,Orexin receptor type 2 [7],> 88.8 µM (inactive)
same,IC50,CHO-K1,> 66.2 µM (inactive)
same,IC50,[9],3.55 µM (active)
same,IC50,[10],11.7 µM (inactive)
Cc1ccc(NC(=O)c2noc(C(C)C)c2[N+](=O)[O-])cc1,EC50,[13],> 160 µM (inactive)
same,EC50,[14],> 150 µM (inconclusive)
same,EC50,[15],> 180 µM (inactive)
same,EC50,[16],3.18 µM (active)
same,IC50,[17],> 50 µM (not active)
OCCN1CCN(c2ncnc3c2sc2nc(N4CCOCC4)c4c(c23)CCC4)CC1,AC50,[18],11.4 µM (active)
same,EC50,[19],0.241 µM (active)
same,EC50,[20],> 60 µM (not active)
same,IC50,[21],24.2 µM (inactive)
COc1ccccc1NC(=O)[C@@H]1CCCN1S(=O)(=O)c1ccc(Cl)cc1,IC50,Orexin receptor type 2 [5],6.28 µM (active)
same,IC50,[6],> 49.7 µM (inactive)
same,IC50,Orexin receptor type 2 [7],11 µM (inactive)
same,IC50,CHO-K1,> 66.2 µM (inactive)
same,IC50,[9],1.21 µM (active)
same,IC50,[10],13.2 µM (inactive)
CN(C(=O)c1ccc(NC(=O)Cc2cccc(NC(=O)C3CCN(C(=O)C4CCCCC4)CC3)c2)cc1)C1CC1,IC50,[21],18.9 µM (inactive)
Cn1ncc(Cl)c1C(=O)NC1CCCC1,AC50,HEK293,> 350 µM (inactive)
Cn1cnc([N+](=O)[O-])c1S(=O)(=O)Oc1ccccc1,AC50,[22],42.3 µM (active)
same,IC50,[1],48 µM (inactive)
same,AC50,[23],3.83 µM (active)
same,AC50,[24],24.1 µM (active)
